Experimental findings from patent US20260060961A1, “SUBSTITUTED HETEROCYCLES AS RAS INHIBITORS” (Jazz Pharmaceuticals Ireland Limited, priority 2022, published 2026) are described below.

Bounds are passed on as bounds.

The experiment concerns the target Recombinant human KRAS protein containing the G12C amino acid substitution (Homo sapiens (Human), UniProt P01116, G12C). Put plainly: HTRF nucleotide exchange assay, KRAS G12C. The experiment is classed as biochemical. To be noted: 180 minute incubation with compound at room temperature; at least two independent replicates; read-out: KRAS G12C HTRF NEA IC50. Here is the method: The capacity of compounds to bind KRAS G12C and KRAS wildtype was quantified using a HTRF nucleotide exchange assay. Recombinant human KRAS protein (5 nM; aa1-188 KRAS WT or KRAS containing the G12C amino acid substitution, an N-terminal 6×His-tag and leader sequence), and 2 nM Europium-labeled anti-6×His antibody were mixed in assay buffer (10 mM HEPES pH7.3, 75 mM NaCl, 5 mM MgCl2, 0.05% BSA, 0.0025% NP-40 and 100 mM KF) with various concentrations of compound in a 384-well plate and a volume of 5 μL. After a 180 minute incubation at room temperature, 5 μl of 200 nM EDA-GTP-DY647P1 diluted in assay buffer was added to the plate. Following 30-minute incubation at room temperature, time-resolved fluorescence was measured on a PerkinElmer Envision plate reader. DMSO (0.3%) and unlabeled GDP (1 μM) or equivalent tool compound were used to generate the Max and Min assay signals, respectively. Data was analysed using a four-parameter logistic model to calculate IC50 values, with at least two independent replicates were performed for each compound.
For orientation: Time-resolved FRET reads energy transfer from a long-lived donor to a nearby acceptor.

Recombinant human KRAS protein containing the G12C amino acid substitution, sequence (P01116 other isoform, or with tags, fused parts or gaps G12C): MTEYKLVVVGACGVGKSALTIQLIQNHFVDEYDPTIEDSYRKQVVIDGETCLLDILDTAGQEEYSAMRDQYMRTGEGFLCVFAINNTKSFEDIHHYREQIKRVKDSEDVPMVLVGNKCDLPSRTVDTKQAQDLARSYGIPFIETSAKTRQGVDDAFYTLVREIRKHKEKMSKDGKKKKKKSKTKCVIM

The term IC50 denotes the concentration that inhibits the measured activity by half. For the molecule `C=CC(=O)N1CC2(CC(c3nc(-c4ccc(N5CCOCC5)cc4)c(-c4cc(O)cc5ccccc45)n3C)C2)C1` [Example 27, 1-[6-[5-(3-hydroxy-1-naphthyl)-1-methyl-4-(4-morpholinophenyl)imidazol-2-yl]-2-azaspiro[3.3]heptan-2-yl]prop-2-en-1-one], the IC50 is not above 1000 nM. For `C=CC(=O)N1CC2(CC(c3nc(-c4ccc5nn(C)cc5c4)c(-c4cc(O)cc5ccccc45)n3C)C2)C1` [Example 28, 1-[6-[5-(3-hydroxy-1-naphthyl)-1-methyl-4-(2-methylindazol-5-yl)imidazol-2-yl]-2-azaspiro[3.3]heptan-2-yl]prop-2-en-1-one] the value was not above 1000 nM; for `C=CC(=O)N1CC2(CC(c3nc(-c4ccc(CN5CCOCC5)cc4)c(-c4cc(O)cc5ccccc45)n3C)C2)C1` [Example 30, 1-[6-[5-(3-hydroxy-1-naphthyl)-1-methyl-4-[4-(morpholinomethyl)phenyl]imidazol-2-yl]-2-azaspiro[3.3]heptan-2-yl]prop-2-en-1-one], not above 1000 nM; for `C=CC(=O)N1CC2(CC(c3nc(-c4ccc(CN5CCN(C)CC5)cc4)c(-c4cc(O)cc5ccccc45)n3C)C2)C1` [Example 31, 1-[6-[5-(3-hydroxy-1-naphthyl)-1-methyl-4-[4-[(4-methylpiperazin-1-yl)methyl]phenyl]imidazol-2-yl]-2-azaspiro[3.3]heptan-2-yl]prop-2-en-1-one], not above 1000 nM. Turning to `C=CC(=O)N1CC2(CC(c3nc(-c4ccc5c(cnn5C)c4)c(-c4cc(O)cc5ccccc45)n3CC)C2)C1` [Example 32, 1-[6-[1-ethyl-5-(3-hydroxy-1-naphthyl)-4-(1-methylindazol-5-yl)imidazol-2-yl]-2-azaspiro[3.3]heptan-2-yl]prop-2-en-1-one], the 50% inhibitory concentration (IC50) was not above 1000 nM. `C=CC(=O)N1CC2(CC(c3nc(-c4ccc(N5CCOCC5)cc4)c(-c4cc(O)cc5ccccc45)n3CC)C2)C1` [Example 33, 1-[6-[1-ethyl-5-(3-hydroxy-1-naphthyl)-4-(4-morpholinophenyl)imidazol-2-yl]-2-azaspiro[3.3]heptan-2-yl]prop-2-en-1-one]: the IC50 is not above 1000 nM. On to `C=CC(=O)N1CC2(CC(c3nc(-c4ccc5c(cnn5C)c4)c(-c4cc(O)cc5cccc(Cl)c45)n3C)C2)C1` [Example 35, 1-[6-[5-(8-chloro-3-hydroxy-1-naphthyl)-1-methyl-4-(1-methylindazol-5-yl)imidazol-2-yl]-2-azaspiro[3.3]heptan-2-yl]prop-2-en-1-one], for which the IC50 is not above 1000 nM. Regarding `C=CC(=O)N1CC2(CC(c3nc(-c4ccc5c(cnn5C)c4)c(-c4cccc5sc(N)c(C#N)c45)n3C)C2)C1` [Example 36, 2-amino-4-[3-methyl-5-(1-methylindazol-5-yl)-2-(2-prop-2-enoyl-2-azaspiro[3.3]heptan-6-yl)imidazol-4-yl]benzothiophene-3-carbonitrile], the IC50 lay in the range of 1000 to 10000 nM. Turning to `C=CC(=O)N1CC2(CC(c3nc(-c4ccc(C(=O)NCCN5CCOCC5)cc4)c(-c4cc(O)cc5ccccc45)n3C)C2)C1` [Example 37, 4-[5-(3-hydroxy-1-naphthyl)-1-methyl-2-(2-prop-2-enoyl-2-azaspiro[3.3]heptan-6-yl)imidazol-4-yl]-N-(2-morpholinoethyl)benzamide], the IC50 is not above 1000 nM. As for `C=CC(=O)N1CC2(CC(c3nc(-c4ccc5c(cnn5C)c4)c(-c4c(C)c(C)cc5[nH]ncc45)n3C)C2)C1` [Example 38, 1-[6-[5-(5,6-dimethyl-1H-indazol-4-yl)-1-methyl-4-(1-methylindazol-5-yl)imidazol-2-yl]-2-azaspiro[3.3]heptan-2-yl]prop-2-en-1-one], the IC50 was not above 1000 nM. As to `C=CC(=O)N1CC2(CC(c3nc(-c4ccc5c(cnn5C)c4)c(-c4cc(O)ccc4C(F)(F)F)n3C)C2)C1` [Example 39, 1-[6-[5-[5-hydroxy-2-(trifluoromethyl)phenyl]-1-methyl-4-(1-methylindazol-5-yl)imidazol-2-yl]-2-azaspiro[3.3]heptan-2-yl]prop-2-en-1-one], the IC50 was not above 1000 nM. In the case of `C=CC(=O)N1CC2(CC(c3nc(-c4ccc5c(cnn5C)c4)c(-c4cc(C#N)cc5[nH]ncc45)n3C)C2)C1` [Example 40, 4-[3-methyl-5-(1-methylindazol-5-yl)-2-(2-prop-2-enoyl-2-azaspiro[3.3]heptan-6-yl)imidazol-4-yl]-1H-indazole-6-carbonitrile], the IC50 lay within 1000 to 10000 nM. With `C=CC(=O)N1CC2(CC(c3nc(-c4ccc5c(cnn5C)c4)c(-c4cc(Cl)cc5[nH]ncc45)n3C)C2)C1` [Example 41, 1-[6-[5-(6-chloro-1H-indazol-4-yl)-1-methyl-4-(1-methylindazol-5-yl)imidazol-2-yl]-2-azaspiro[3.3]heptan-2-yl]prop-2-en-1-one], the 50% inhibitory concentration (IC50) is not above 1000 nM.
